Reference: patent publication US20240101576A1, “HETEROCYCLIC INHIBITORS OF EGFR AND/OR HER2, FOR USE IN THE TREATMENT OF CANCER” (Scorpion Therapeutics, Inc., priority 2020, published 2024)

Key:
Type in all cases: cell-based
EGFR L858R (Ba/F3 cells) = molecular target: T1, EGFR L858R (Ba/F3 cells) (Homo sapiens, UniProt P00533, L858R); test: Inhibitor activity on EGFR-dependent cell growth (CellTiter-Glo, 72 h), Ba/F3 EGFR L858R; conditions: read-out: BaF3 L858R IC50
T1 construct: expressed in transfected cells; host or cells: Ba/F3 (murine pro-B cells), retroviral transduction, puromycin selection, IL3-independent pool
Excerpt: (§1) Example A. Inhibitor Activity on EGFR-Dependent Cell Growth
(§2) Cell lines are generated by transducing Ba/F3 cells with retroviruses containing vectors with EGFR WT, EGFR L858R, EGFR exon 19del, EGFR L858R/C797S, EGFR exon 20 NPG Ins D770_N771, EGFR exon 20 ASV Ins V769_D770, EGFR exon 20 SVD Ins D770_N771, or EGFR exon 20 FQEA Ins A763_V764 genes and a puromycin selection marker. Transduced cells are selected with puromycin for 7 days and are then be transferred into culture media without Interleukin 3 (IL3). EGFR WT cells are maintained with supplemental EGF. Surviving cells are confirmed to express EGFR by Western blot and maintained as a pool. The IC50 date were included in Table 6 and Table 7.
(§3) 1.1 Cells are harvested from flask into cell culture medium and the cell number counted.
(§4) 1.2 Cells are diluted with culture medium to the desired density and 40 μL of cell suspension is added into each well of 384-well cell culture plate and the seeding density is 800 (FQEA, exon 19del), 600 (WT, NPG, L858R/C797S), or 400 (ASV, SVD, L858R) cells/well.
(§5) 2 Compound Preparation and Treatment
(§6) 2.1 Test compounds are dissolved to 10 mM in a DMSO stock solution. 45 μL of stock solution is transferred to a 384 polypropylene plate (pp-plate). Perform 3-fold, 10-point dilution via transferring 15 μL compound into 30 μL DMSO using a TECAN (EVO200) liquid handler.
(§7) 2.2 Spin plates at room temperature at 1,000 RPM for 1 minute.
(§8) 2.3 Transfer 120 nL of diluted compound from compound source plate into the cell plate.
(§9) 2.4 After compound treatment for 72 hours, perform CTG detection for compound treatment plates as described in “Detection” section.
(§10) 3.1 Plates are removed from incubators and equilibrated at room temperature for 15 minutes.
(§11) 3.2 Thaw the CellTiter Glo reagents and allow to equilibrate to room temperature before the experiment.
(§12) 3.3 Add 40 μL of CellTiter-Glo reagent into each well (at 1:1 to culture medium). Then place the plates at room temperature for 30 min followed by reading on EnVision.
(§13) 4.1 Inhibition activity is calculated following the formula below:
(§14) % Inhibition=100×(LumHC−LumSample)/(LumHC−LumLC) • where HC is obtained from cells treated with 0.1% DMSO only; and LC is obtained from culture medium only.
(§15) 4.2 2. Calculate the IC50 by fitting the Curve using Xlfit (v5.3.1.3), equation 201.
(§16) Y=Bottom+(Top−Bottom)/(1+10^((Log IC50−X)*HillSlope))

[1] = molecular target: EGFR exon 19del (Ba/F3 cells) (Homo sapiens, UniProt P00533); test: Inhibitor activity on EGFR-dependent cell growth (CellTiter-Glo, 72 h), Ba/F3 EGFR exon 19del; conditions: Ba/F3 EGFR exon 19del cell growth, read-out: BaF3 Del19 IC50
Excerpt: as §1, §2, §3, §4, §5, §6, §7, §8, §9, §10, §11, §12, §13, §14, §15, §16

EGFR WT (Ba/F3 cells) = molecular target: T2, EGFR WT (Ba/F3 cells) (Homo sapiens, UniProt P00533); test: Inhibitor activity on EGFR-dependent cell growth (CellTiter-Glo, 72 h), Ba/F3 EGFR WT; conditions: read-out: BaF3 WT IC50
T2 construct: expressed in transfected cells; host or cells: Ba/F3 (murine pro-B cells), retroviral transduction, puromycin selection, maintained with EGF
How it was run: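 This growth assay used Ba/F3 cells that depend on wild-type EGFR and are kept in EGF without IL3. Compounds were made up as 10 mM DMSO stocks and diluted 3-fold over 10 points. 120 nL went onto 600 cells/well. After 72 hours, 40 μL CellTiter-Glo was added and luminescence read on EnVision after 30 min.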

[2] = molecular target: T3, EGFR exon 20 NPG Ins D770_N771 (Ba/F3 cells) (Homo sapiens, UniProt P00533, INS770NPG); test: Inhibitor activity on EGFR-dependent cell growth (CellTiter-Glo, 72 h), Ba/F3 EGFR exon 20 NPG Ins; conditions: read-out: BaF3 NPG IC50
T3 construct: expressed in transfected cells; host or cells: Ba/F3 (murine pro-B cells), retroviral transduction, puromycin selection, IL3-independent pool
How it was run: (§17)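 IC50s derive from a sigmoidal dose–response fit of CellTiter-Glo signal. The signal was normalised between […]-treated cells and cell-free medium. Ba/F3 mutant-EGFR cells, seeded at 400–800/well depending on the line, had 72 h of exposure to a 10-point, 3-fold compound series.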

[3] = molecular target: T4, EGFR exon 20 FQEA Ins A763_V764 (Ba/F3 cells) (Homo sapiens, UniProt P00533, INS763FQEA); test: Inhibitor activity on EGFR-dependent cell growth (CellTiter-Glo, 72 h), Ba/F3 EGFR exon 20 FQEA Ins; conditions: read-out: BaF3 FQEA IC50
T4 construct: expressed in transfected cells; host or cells: Ba/F3 (murine pro-B cells), retroviral transduction, puromycin selection, IL3-independent pool
How it was run: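 Steps: seed Ba/F3 EGFR-mutant pools (800 cells/well FQEA and exon 19del; 600 L858R/C797S; 400 L858R). Add 120 nL of serially diluted compound and incubate 72 h. Equilibrate to room temperature, add CellTiter-Glo and read after 30 min. Fit IC50.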

EGFR (CUTO14 cells) = EGFR (CUTO14 cells) (Homo sapiens, UniProt P00533); test: Inhibitor activity on EGFR phosphorylation (pEGFR AlphaLISA, 2 h), CUTO14 cells
Excerpt: (§18) Example B. Inhibitor Activity on EGFR phosphorylation (pEGFR)
(§19) EGFR mutant Ba/F3 cells were generated by transduction with retrovirus containing vectors expressing EGFR L858R, EGFR exon 19del, EGFR L858R/C797S, EGFR exon 20 NPG Ins D770_N771, EGFR exon 20 ASV Ins V769_D770, or EGFR exon 20 SVD Ins D770_N771 genes along with a puromycin selection marker. Transduced cells are selected with puromycin for 7 days and are then be transferred into culture media without Interleukin 3 (IL3). Surviving cells are confirmed to express EGFR by Western blot and maintained as a pool. CUTO14 cells were obtained from Dr. Robert C. Doebele at the University of Colorado. The IC50 date are included in Table 6 and Table 7.
as §3
(§20) 1.2 Cells are diluted with culture medium to the desired density and 40 μL of cell suspension is added into each well of 384-well cell culture plate and the seeding density is 50K cells/well (Ba/F3) or 12.5K cells/well (CUTO14).
as §5, §6, §7
(§21) 2.3 Transfer 5 nL of diluted compound from compound source plate into the cell plate.
(§22) 2.4 After compound treatment for 2 hours, perform pEGFR detection by AlphaLISA for compound treatment plates as described in “Detection” section.
(§23) 3 Detection by pEGFR AlphaLISA (Perkin-Elmer)
(§24) 3.1 Plates are removed from incubators and equilibrated at room temperature for 10 minutes, and media was removed
(§25) 3.2 10 μL of lysis buffer is added and plates shaken at 600 rpm for 1 hr.
(§26) 3.3 Prepare acceptor mix just before use and dispense 5 μL of acceptor mix to all the wells. Shake 350 rpm for Ihr in the dark
(§27) 3.4 Prepare donor mix under low light conditions prior to use. Dispense 5 μL of donor mix to all the wells. Mix well on the shaker, seal and wrap in aluminum foil and incubate 1.5 hrs at room temperature in the dark
(§28) 3.5 Transfer 18.5 μL mixture to OptiPlate 384, and read using an Envision. The IC50 date were included in Table 6 and Table 7.

[4] = molecular target: T5, EGFR L858R/C797S (Ba/F3 cells) (Homo sapiens, UniProt P00533, C797S/L858R); test: Inhibitor activity on EGFR-dependent cell growth (CellTiter-Glo, 72 h), Ba/F3 EGFR L858R/C797S; conditions: read-out: BaF3 L858R/C797S IC50
T5 construct: expressed in transfected cells; host or cells: Ba/F3 (murine pro-B cells), retroviral transduction, puromycin selection, IL3-independent pool
Excerpt: as §1, §2, §3, §4, §5, §6, §7, §8, §9, §10, §11, §12, §13, §14, §15, §16

[5] = molecular target: T5, EGFR L858R/C797S (Ba/F3 cells); test: Inhibitor activity on EGFR phosphorylation (pEGFR AlphaLISA, 2 h), Ba/F3 EGFR L858R/C797S
Excerpt: as §18, §19, §3, §20, §5, §6, §7, §21, §22, §23, §24, §25, §26, §27, §28

[6] = molecular target: T6, EGFR exon 20 ASV Ins V769_D770 (Ba/F3 cells) (Homo sapiens, UniProt P00533, INS769ASV); test: Inhibitor activity on EGFR-dependent cell growth (CellTiter-Glo, 72 h), Ba/F3 EGFR exon 20 ASV Ins; conditions: read-out: BaF3 ASV IC50
T6 construct: expressed in transfected cells; host or cells: Ba/F3 (murine pro-B cells), retroviral transduction, puromycin selection, IL3-independent pool
How it was run: as §17

[7] = molecular target: T7, EGFR exon 20 SVD Ins D770_N771 (Ba/F3 cells) (Homo sapiens, UniProt P00533, INS770SVD); test: Inhibitor activity on EGFR-dependent cell growth (CellTiter-Glo, 72 h), Ba/F3 EGFR exon 20 SVD Ins; conditions: read-out: BaF3 SVD IC50
T7 construct: expressed in transfected cells; host or cells: Ba/F3 (murine pro-B cells), retroviral transduction, puromycin selection, IL3-independent pool
How it was run: as §17

T4 sequence (P00533 with tags, fused parts or gaps INS763FQEA): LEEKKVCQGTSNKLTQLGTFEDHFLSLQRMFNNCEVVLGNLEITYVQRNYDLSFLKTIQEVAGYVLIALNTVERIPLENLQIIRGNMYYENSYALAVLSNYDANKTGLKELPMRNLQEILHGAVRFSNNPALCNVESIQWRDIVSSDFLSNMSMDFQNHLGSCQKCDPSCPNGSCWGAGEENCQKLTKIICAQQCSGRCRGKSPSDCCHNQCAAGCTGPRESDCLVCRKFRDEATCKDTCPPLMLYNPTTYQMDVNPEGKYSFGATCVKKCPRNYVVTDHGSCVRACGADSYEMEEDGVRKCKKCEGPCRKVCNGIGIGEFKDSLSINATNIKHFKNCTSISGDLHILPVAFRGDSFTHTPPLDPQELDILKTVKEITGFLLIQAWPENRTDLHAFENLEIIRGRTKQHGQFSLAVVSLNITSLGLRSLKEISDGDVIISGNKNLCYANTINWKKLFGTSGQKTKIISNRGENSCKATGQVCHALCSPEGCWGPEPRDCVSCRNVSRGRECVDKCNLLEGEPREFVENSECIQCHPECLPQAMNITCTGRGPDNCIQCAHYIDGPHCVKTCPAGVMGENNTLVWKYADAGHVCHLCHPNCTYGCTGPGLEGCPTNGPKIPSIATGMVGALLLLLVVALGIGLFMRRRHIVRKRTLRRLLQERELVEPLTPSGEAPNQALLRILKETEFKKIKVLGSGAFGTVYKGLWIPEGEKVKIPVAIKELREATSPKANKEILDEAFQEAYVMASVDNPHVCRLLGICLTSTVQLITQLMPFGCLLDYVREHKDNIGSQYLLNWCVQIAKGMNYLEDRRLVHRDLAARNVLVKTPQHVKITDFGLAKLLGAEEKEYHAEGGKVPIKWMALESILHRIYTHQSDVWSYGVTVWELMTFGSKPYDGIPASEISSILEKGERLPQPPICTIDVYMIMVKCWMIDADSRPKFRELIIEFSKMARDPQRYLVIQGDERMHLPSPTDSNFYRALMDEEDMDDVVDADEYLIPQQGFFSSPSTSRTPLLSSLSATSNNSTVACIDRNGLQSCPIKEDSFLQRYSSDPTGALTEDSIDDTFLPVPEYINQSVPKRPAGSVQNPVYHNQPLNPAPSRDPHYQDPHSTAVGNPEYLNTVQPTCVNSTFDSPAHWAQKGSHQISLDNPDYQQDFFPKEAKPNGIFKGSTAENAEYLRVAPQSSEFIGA
T3 sequence (P00533 with tags, fused parts or gaps INS770NPG): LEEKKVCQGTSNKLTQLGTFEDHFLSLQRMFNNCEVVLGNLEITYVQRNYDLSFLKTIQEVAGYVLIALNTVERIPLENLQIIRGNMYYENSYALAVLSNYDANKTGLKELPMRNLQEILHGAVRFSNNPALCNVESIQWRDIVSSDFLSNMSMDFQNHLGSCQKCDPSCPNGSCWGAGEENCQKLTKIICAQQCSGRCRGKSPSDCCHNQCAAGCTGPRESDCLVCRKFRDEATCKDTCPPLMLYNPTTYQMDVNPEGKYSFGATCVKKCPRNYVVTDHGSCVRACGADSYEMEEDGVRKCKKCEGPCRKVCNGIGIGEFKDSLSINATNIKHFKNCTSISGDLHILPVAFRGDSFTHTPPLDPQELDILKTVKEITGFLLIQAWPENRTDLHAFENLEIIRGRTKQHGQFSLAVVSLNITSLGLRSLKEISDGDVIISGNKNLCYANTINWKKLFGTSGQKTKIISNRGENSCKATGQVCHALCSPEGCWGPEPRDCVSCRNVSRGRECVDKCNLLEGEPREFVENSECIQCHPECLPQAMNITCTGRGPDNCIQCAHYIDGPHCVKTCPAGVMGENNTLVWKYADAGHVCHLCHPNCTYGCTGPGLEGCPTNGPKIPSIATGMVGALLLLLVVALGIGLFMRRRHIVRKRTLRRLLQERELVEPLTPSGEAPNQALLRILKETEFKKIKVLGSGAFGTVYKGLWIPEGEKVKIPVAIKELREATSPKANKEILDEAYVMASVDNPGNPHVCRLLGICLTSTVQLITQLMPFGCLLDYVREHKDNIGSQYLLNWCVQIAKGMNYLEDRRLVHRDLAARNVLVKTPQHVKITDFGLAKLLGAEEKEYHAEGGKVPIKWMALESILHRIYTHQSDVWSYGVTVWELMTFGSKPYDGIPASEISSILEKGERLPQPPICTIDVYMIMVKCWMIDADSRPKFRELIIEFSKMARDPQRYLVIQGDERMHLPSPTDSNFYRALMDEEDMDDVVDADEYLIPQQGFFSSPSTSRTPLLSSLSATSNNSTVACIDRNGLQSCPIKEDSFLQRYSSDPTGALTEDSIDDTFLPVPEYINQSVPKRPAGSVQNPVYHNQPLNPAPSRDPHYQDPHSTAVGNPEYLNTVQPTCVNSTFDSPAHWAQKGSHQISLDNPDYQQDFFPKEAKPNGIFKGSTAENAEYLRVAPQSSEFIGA
T6 sequence (P00533 with tags, fused parts or gaps INS769ASV): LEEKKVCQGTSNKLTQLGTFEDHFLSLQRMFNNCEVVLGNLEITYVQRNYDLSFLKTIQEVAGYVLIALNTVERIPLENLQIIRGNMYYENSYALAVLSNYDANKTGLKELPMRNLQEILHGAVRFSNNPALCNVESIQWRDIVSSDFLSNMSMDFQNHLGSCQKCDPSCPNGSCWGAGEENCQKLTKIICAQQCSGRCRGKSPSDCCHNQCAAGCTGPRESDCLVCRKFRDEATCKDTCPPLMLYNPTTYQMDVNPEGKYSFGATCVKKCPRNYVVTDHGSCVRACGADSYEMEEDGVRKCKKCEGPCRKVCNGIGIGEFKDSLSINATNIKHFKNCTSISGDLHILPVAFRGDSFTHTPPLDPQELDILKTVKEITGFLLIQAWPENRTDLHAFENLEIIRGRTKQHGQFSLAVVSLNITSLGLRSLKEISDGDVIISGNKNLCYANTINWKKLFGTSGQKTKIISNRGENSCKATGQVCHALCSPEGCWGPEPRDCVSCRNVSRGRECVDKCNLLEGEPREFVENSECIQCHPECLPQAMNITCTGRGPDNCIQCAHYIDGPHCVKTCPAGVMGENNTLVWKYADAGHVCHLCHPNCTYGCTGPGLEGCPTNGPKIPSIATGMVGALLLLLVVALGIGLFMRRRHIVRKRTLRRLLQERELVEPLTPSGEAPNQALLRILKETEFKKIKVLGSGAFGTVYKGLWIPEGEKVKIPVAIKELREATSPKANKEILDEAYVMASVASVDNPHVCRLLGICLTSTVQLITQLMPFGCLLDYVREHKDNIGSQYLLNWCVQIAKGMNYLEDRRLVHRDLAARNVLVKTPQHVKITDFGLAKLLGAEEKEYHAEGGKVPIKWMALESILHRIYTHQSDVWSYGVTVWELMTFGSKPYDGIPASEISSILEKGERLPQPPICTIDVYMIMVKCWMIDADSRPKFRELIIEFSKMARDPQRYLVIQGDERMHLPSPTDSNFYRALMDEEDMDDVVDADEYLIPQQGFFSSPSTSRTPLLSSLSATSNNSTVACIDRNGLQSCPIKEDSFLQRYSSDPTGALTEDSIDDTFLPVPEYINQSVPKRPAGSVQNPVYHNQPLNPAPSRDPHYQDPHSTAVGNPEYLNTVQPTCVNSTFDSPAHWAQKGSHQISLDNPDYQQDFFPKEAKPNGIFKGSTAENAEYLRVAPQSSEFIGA
Chain of EGFR exon 19del (Ba/F3 cells) (P00533 with tags, fused parts or gaps DEL746-750): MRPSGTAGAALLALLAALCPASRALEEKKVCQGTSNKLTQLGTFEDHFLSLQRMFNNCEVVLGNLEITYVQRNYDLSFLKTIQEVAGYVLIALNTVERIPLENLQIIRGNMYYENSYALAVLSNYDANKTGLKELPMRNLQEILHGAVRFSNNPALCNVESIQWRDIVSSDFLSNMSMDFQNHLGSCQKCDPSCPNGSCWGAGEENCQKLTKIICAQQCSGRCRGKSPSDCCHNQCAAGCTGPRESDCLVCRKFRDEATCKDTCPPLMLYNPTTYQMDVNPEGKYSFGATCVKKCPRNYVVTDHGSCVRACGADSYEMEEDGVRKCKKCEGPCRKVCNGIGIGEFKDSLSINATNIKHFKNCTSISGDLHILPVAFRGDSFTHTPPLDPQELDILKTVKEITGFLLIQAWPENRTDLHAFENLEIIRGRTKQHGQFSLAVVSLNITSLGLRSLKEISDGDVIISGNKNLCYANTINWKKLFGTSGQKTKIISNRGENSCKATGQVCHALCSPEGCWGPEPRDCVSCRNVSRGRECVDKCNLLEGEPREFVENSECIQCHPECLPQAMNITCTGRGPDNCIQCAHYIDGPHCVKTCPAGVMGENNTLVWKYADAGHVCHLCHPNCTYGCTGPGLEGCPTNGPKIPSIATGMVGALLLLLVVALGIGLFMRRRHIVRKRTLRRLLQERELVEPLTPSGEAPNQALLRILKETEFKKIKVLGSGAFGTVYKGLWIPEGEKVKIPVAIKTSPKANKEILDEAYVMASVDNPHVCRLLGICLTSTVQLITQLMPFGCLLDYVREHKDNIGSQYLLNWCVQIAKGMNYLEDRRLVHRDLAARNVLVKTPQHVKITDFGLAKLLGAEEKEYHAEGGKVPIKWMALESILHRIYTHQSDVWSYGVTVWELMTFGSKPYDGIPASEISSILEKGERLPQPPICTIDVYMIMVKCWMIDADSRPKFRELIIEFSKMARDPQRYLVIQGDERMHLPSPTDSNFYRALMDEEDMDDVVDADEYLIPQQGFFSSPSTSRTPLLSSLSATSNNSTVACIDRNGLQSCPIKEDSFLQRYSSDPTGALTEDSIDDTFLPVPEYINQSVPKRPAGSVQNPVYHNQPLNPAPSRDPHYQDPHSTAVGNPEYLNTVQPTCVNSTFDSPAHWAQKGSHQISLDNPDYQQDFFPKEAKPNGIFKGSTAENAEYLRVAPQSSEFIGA

With `COc1c(Cl)cccc1Nc1c(-c2ccncc2F)[nH]c2c1C(=O)NC[C@H]2C[C@@H]1COCCO1` (single isomer, unassigned) [Compound 483] the IC50 (EGFR L858R (Ba/F3 cells)) was less than 100 nM, the IC50 [1] was less than 100 nM and the IC50 (EGFR WT (Ba/F3 cells)) was greater than 1000 nM. The IC50 [2] was less than 100 nM, the IC50 [3] was 100 to 1000 nM and the IC50 (EGFR (CUTO14 cells)) was less than 100 nM.

With `COCC[C@H]1CNC(=O)c2c1[nH]c(-c1ccnc(C)n1)c2Nc1cccc(F)c1OC` [453b] the IC50 (EGFR L858R (Ba/F3 cells)) was less than 100 nM, the IC50 [1] was less than 100 nM and the IC50 [4] was less than 100 nM. It also gave an IC50 [5] of less than 100 nM, an IC50 (EGFR WT (Ba/F3 cells)) of 100 to 1000 nM and an IC50 [2] of less than 100 nM. It also gave an IC50 [6] of less than 100 nM, an IC50 [7] of less than 100 nM and an IC50 (EGFR (CUTO14 cells)) of less than 100 nM.

`COc1c(Cl)cccc1Nc1c(-c2ccnc(N)n2)[nH]c2c1C(=O)NC[C@@H]2C[C@H]1COCCO1` [Compound 531, (7S)-2-(2-aminopyrimidin-4-yl)-3-[(3-chloro-2-methoxyphenyl)amino]-7-[(2S)-1,4-dioxan-2-ylmethyl]-1H,5H,6H,7H-pyrrolo[3,2-c]pyridin-4-one] was tested, and the IC50 (EGFR L858R (Ba/F3 cells)) was less than 100 nM, the IC50 [1] was less than 100 nM and the IC50 (EGFR WT (Ba/F3 cells)) was 100 to 1000 nM. It also gave an IC50 [2] of less than 100 nM, an IC50 [6] of less than 100 nM and an IC50 [7] of less than 100 nM. The IC50 [3] was less than 100 nM and the IC50 (EGFR (CUTO14 cells)) was less than 100 nM.

In the case of `C=CC(=O)N1CCC2(CC1)CNC(=O)c1c2[nH]c(-c2ccncc2F)c1Nc1cc(F)cc(Cl)c1OC` [Compound 559, 3′-[(3-chloro-5-fluoro-2-methoxyphenyl)amino]-2′-(3-fluoropyridin-4-yl)-1-(prop-2-enoyl)-5′,6′-dihydro-1′H-spiro[piperidine-4,7′-pyrrolo[3,2-c]pyridin]-4′-one], the IC50 (EGFR L858R (Ba/F3 cells)) is reported as less than 100 nM, the IC50 [1] is reported as less than 100 nM and the IC50 (EGFR WT (Ba/F3 cells)) is reported as less than 100 nM. It also gave an IC50 [2] of less than 100 nM, an IC50 [6] of less than 100 nM and an IC50 [7] of less than 100 nM. It also gave an IC50 [3] of less than 100 nM and an IC50 (EGFR (CUTO14 cells)) of less than 100 nM.

`COc1c(Cl)cccc1Nc1c(-c2ccnc(N)n2)[nH]c2c1C(=O)NC[C@H]2C[C@H]1COCCO1` [Compound 571, (7R)-2-(2-aminopyrimidin-4-yl)-3-[(3-chloro-2-methoxyphenyl)amino]-7-[(2S)-1,4-dioxan-2-ylmethyl]-1H,5H,6H,7H-pyrrolo[3,2-c]pyridin-4-one] was tested, and the IC50 (EGFR L858R (Ba/F3 cells)) was less than 100 nM, the IC50 [1] was less than 100 nM and the IC50 (EGFR WT (Ba/F3 cells)) was 100 to 1000 nM. For the same compound, the IC50 [2] was less than 100 nM, the IC50 [6] was less than 100 nM and the IC50 [7] was less than 100 nM. The IC50 [3] was less than 100 nM and the IC50 (EGFR (CUTO14 cells)) was less than 100 nM.
